# Laboratory results published in patent US9586907B2, “Isothiocyanate compounds, pharmaceutical compositions, and uses thereof” (priority 2006, dated 2017).
# Where two headings read alike, the source gives them in different places.
# Key:
# Shigella sp., BK 12440 = experiment: MIC, Shigella sp., BK 12440; assay type: cell-based; conditions: Gram −, 24 hours of incubation
# Shigella sp., BK 12441 = experiment: MIC, Shigella sp., BK 12441; assay type: cell-based; conditions: Gram −, 24 hours of incubation
# [1] = system: Bacillus subtilis BK11590; experiment: MIC, Bacillus subtilis BK11590; assay type: cell-based; conditions: Gram +, 24 hours of incubation
# M. intracellularie = experiment: MIC, M. intracellularie; assay type: cell-based
# M. avium = experiment: MIC, M. avium; assay type: cell-based; conditions: Mycobacterium avium
# M. scrofulaceum = experiment: MIC, M. scrofulaceum; assay type: cell-based; conditions: Mycobacterium scrofulaceum
# M. cansassi = experiment: MIC, M. cansassi; assay type: cell-based
# M. fortuitum = experiment: MIC, M. fortuitum; assay type: cell-based; conditions: Mycolicibacterium fortuitum
# M. tuberculosis W = experiment: MIC, M. tuberculosis W; assay type: cell-based; conditions: Mycobacterium tuberculosis, read-out: MIC
# Experimental: (§1) Next, several of the bifunctional ITC compounds were tested for their ability to inhibit the growth of some clinical isolates of Mycobacteria, the results of which are summarized in Table 3 below.
# M. tuberculosis H37Rv = experiment: MIC, M. tuberculosis H37Rv; assay type: cell-based; conditions: Mycobacterium tuberculosis, read-out: MIC
# Experimental: as §1
# M. tuberculosis CDC1551 = experiment: MIC, M. tuberculosis CDC1551; assay type: cell-based; conditions: Mycobacterium tuberculosis, read-out: MIC
# Experimental: as §1
# M. tuberculosis P = experiment: MIC, M. tuberculosis P; assay type: cell-based; conditions: Mycobacterium tuberculosis, read-out: MIC
# Experimental: as §1
# [2] = system: MRSA (Staphylococcus aureus) BK12060; experiment: MIC, MRSA BK12060
# [3] = system: MRSA (Staphylococcus aureus) BK12064; experiment: MIC, MRSA BK12064
# Escherichia coli K12 = experiment: MIC, Escherichia coli K12
# Bacillus cereus 4342 = experiment: MIC, Bacillus cereus 4342
# Escherichia coli BK12336 = experiment: MIC, Escherichia coli BK12336
# [4] = system: Enterococcus sp., BK11936; experiment: MIC, Enterococcus sp., BK11936
# [5] = system: Enterococcus sp., BK11940; experiment: MIC, Enterococcus sp., BK11940
# [6] = system: Acinetobacter sp., BK12786; experiment: MIC, Acinetobacter sp., BK12786
# [7] = system: Acinetobacter sp., BK12787; experiment: MIC, Acinetobacter sp., BK12787
# [8] = system: Streptococcus sp., BK12233; experiment: MIC, Streptococcus sp., BK12233; conditions: Streptococcus, 24 h
# [9] = system: Streptococcus sp., BK12235; experiment: MIC, Streptococcus sp., BK12235; conditions: Streptococcus, 24 h
# [10] = system: Serattia marcescens BK12421; experiment: MIC, Serattia marcescens BK12421
# [11] = system: Serattia marcescens BK12426; experiment: MIC, Serattia marcescens BK12426
# [12] = system: Enterobacter cloacii BK12313; experiment: MIC, Enterobacter cloacii BK12313
# [13] = system: Enterobacter cloacii BK12315; experiment: MIC, Enterobacter cloacii BK12315
# [14] = system: Klebsiella pneumonii BK12260; experiment: MIC, Klebsiella pneumonii BK12260
# [15] = system: Klebsiella pneumonii BK12261; experiment: MIC, Klebsiella pneumonii BK12261
# [16] = system: Pseudomonas aeruginosa BK12347; experiment: MIC, Pseudomonas aeruginosa BK12347
# [17] = system: Pseudomonas aeruginosa BK12348; experiment: MIC, Pseudomonas aeruginosa BK12348
# Candida crusei 6258^mdr = experiment: microbe, parasite or virus in culture; conditions: read-out: Anti-Fungal Activity (MIC)
# [18] = system: Staphylococcus epidermidis BK12798; experiment: MIC, Staphylococcus epidermidis BK12798
# [19] = system: Staphylococcus epidermidis BK12799; experiment: MIC, Staphylococcus epidermidis BK12799
# Candida albicans 90028 = experiment: Anti-fungal MIC, Candida albicans 90028; conditions: Candida albicans, 90028, read-out: Anti-Fungal Activity (MIC)
# Candida albicans 90030 = experiment: Anti-fungal MIC, Candida albicans 90030; conditions: Candida albicans, 90030, read-out: Anti-Fungal Activity (MIC)
# Candida dlabrata 250^mdr = experiment: Anti-fungal MIC, Candida dlabrata 250^mdr; conditions: Candida, read-out: Anti-Fungal Activity (MIC)
# [20] = system: Candida albicans 5108^mdr; experiment: Anti-fungal MIC, Candida albicans 5108^mdr; conditions: Candida albicans, read-out: Anti-Fungal Activity (MIC)
# [21] = system: Candida parapsilosis 22019; experiment: Anti-fungal MIC, Candida parapsilosis 22019; conditions: 22019, read-out: Anti-Fungal Activity (MIC)
# [22] = system: Aspergillus fumigatus Rit 1; experiment: Anti-fungal MIC, Aspergillus fumigatus Rit 1; conditions: Aspergillus fumigatus, RIT1, read-out: Anti-Fungal Activity (MIC)
# [23] = system: Aspergillus fumigatus Rit 11; experiment: Anti-fungal MIC, Aspergillus fumigatus Rit 11; conditions: Aspergillus fumigatus, RIT11, read-out: Anti-Fungal Activity (MIC)
# [24] = system: Aspergillus fumigatus Rit 21; experiment: Anti-fungal MIC, Aspergillus fumigatus Rit 21; conditions: Aspergillus fumigatus, RIT21, read-out: Anti-Fungal Activity (MIC)
# [25] = system: Cryptococcus neoformans CNH99; experiment: Anti-fungal MIC, Cryptococcus neoformans CNH99; conditions: Cryptococcus neoformans, CNH99, read-out: Anti-Fungal Activity (MIC)
# [26] = system: clinical isolates of bacteria and fungus (including yeasts); experiment: General antimicrobial activity, semi-quantitative score on collection of clinical isolates; assay type: cell-based; conditions: semi-quantitative score from number of sensitive bacterial strains at 100 and 200 μM; deduced from number of sensitive bacterial species and average MIC; further: key: −: indicating no activity; +++++: indicating highest activity
# Experimental: The growth inhibitory effect of a number of various ITC compounds were tested on large collection of clinical isolates of bacteria and fungus (including yeasts), in order to establish a systematic structure-activity relationship for the ITC compounds. […] To assess the average activity for an individual ITC compound, the semi-quantitative score was calculated for each compound based on the number of sensitive bacterial strains at concentrations of 100 and 200 μM.
# [27] = Compound stability, independent experiments; assay type: physicochemical
# [28] = In vivo tolerance in mice; conditions: highest dose, 50 mg/kg
# virus (92TH594) = experiment: Viral proliferation in PBMC, p24 viral antigen; assay type: cell-based; conditions: PBMC
# Bacillus cereus = experiment: Activity of ITC compounds against Bacillus cereus; assay type: cell-based
# [29] = Staphylococcus aureus, MRSA, 24 h
compound,measurement,setting,value
"COc1ccc(CN=C=S)cc1 [Compound 2, reference compound]",MIC,"Shigella sp., BK 12440; read-out: MIC",64 µg/mL
same,MIC,"Shigella sp., BK 12441; read-out: MIC",32 to 64 µg/mL
same,MIC,[1]; read-out: MIC,32 to 64 µg/mL
same,MIC,"M. intracellularie; M. intracellularie, read-out: MIC",32 µg/mL
same,MIC,"M. avium; M. avium, read-out: MIC",32 µg/mL
same,MIC,"M. scrofulaceum; M. scrofulaceum, read-out: MIC",32 µg/mL
same,MIC,"M. cansassi; M. cansassi, read-out: MIC",32 µg/mL
same,MIC,"M. fortuitum; M. fortuitum, read-out: MIC",32 µg/mL
same,MIC,M. tuberculosis W,8 µg/mL
same,MIC,M. tuberculosis H37Rv,32 µg/mL
same,MIC,M. tuberculosis CDC1551,32 µg/mL
same,MIC,M. tuberculosis P,8 µg/mL
same,MIC,[2]; [29],32 to 64 µg/mL
same,MIC,[3]; [29],64 µg/mL
same,MIC,"Escherichia coli K12; Escherichia coli, K12, 24 h",64 µg/mL
same,MIC,"Bacillus cereus 4342; Bacillus cereus, 4342, 24 h",32 µg/mL
same,MIC,"Escherichia coli BK12336; Escherichia coli, BK12336, 24 h",> 64 µg/mL
same,MIC,"[4]; Enterococcus, 24 h",64 µg/mL
same,MIC,"[5]; Enterococcus, 24 h",64 µg/mL
same,MIC,"[6]; Acinetobacter, 24 h",> 64 µg/mL
same,MIC,"[7]; Acinetobacter, 24 h",> 64 µg/mL
same,MIC,[8],4 µg/mL
same,MIC,[9],8 µg/mL
same,MIC,[10]; 24 h,> 64 µg/mL
same,MIC,[11]; 24 h,> 64 µg/mL
same,MIC,"[12]; Enterobacter, BK12313, 24 h",> 64 µg/mL
same,MIC,"[13]; Enterobacter, BK12315, 24 h",> 64 µg/mL
same,MIC,"[14]; Klebsiella, BK12260, 24 h",> 64 µg/mL
same,MIC,"[15]; Klebsiella, BK12261, 24 h",> 64 µg/mL
same,MIC,"[16]; Pseudomonas aeruginosa, BK12347, 24 h",> 64 µg/mL
same,MIC,"[17]; Pseudomonas aeruginosa, BK12348, 24 h",> 64 µg/mL
same,MIC,Candida crusei 6258^mdr,2 µg/mL
same,MIC,"[18]; Staphylococcus epidermidis, BK12798, 24 h",32 µg/mL
same,MIC,"[19]; Staphylococcus epidermidis, BK12799, 24 h",32 µg/mL
same,MIC,Candida albicans 90028,4 µg/mL
same,MIC,Candida albicans 90030,4 µg/mL
same,MIC,Candida dlabrata 250^mdr; 48 h,1 µg/mL
same,MIC,[20],2 µg/mL
same,MIC,[21],4 µg/mL
same,MIC,[22],8 µg/mL
same,MIC,[23],8 µg/mL
same,MIC,[24],8 µg/mL
same,MIC,[25],< 1 µg/mL
S=C=NCc1ccncc1 [Compound 29],General antimicrobial activity,[26],−
same,stability of the compound,[27],instability of the compound
S=C=NCc1cccnc1 [Compound 30],MIC,M. intracellularie,32 µg/mL
same,MIC,M. avium,32 µg/mL
same,MIC,M. scrofulaceum,32 µg/mL
same,MIC,M. cansassi,32 µg/mL
same,MIC,M. fortuitum,16 µg/mL
same,MIC,M. tuberculosis W,4 µg/mL
same,MIC,M. tuberculosis H37Rv,32 µg/mL
same,MIC,M. tuberculosis CDC1551,16 µg/mL
same,MIC,M. tuberculosis P,4 µg/mL
same,toxicity in treated mice,[28],no toxicity was observed
same,P24 values,"virus (92TH594); compound 2.5 μg/ml, added to the cells after viral infection",643 pg/mL
same,P24 values,"virus (92TH594); compound 2.5 μg/ml, added to the cells before viral infection",320 pg/mL
same,P24 values,"virus (92TH594); compound 10 μg/ml, added to the cells after viral infection",155 pg/mL
same,P24 values,"virus (92TH594); compound 10 μg/ml, added to the cells before viral infection",0 pg/mL
same,activity against Bacillus cereus (in words),Bacillus cereus,only moderately active
same,MIC,Candida crusei 6258^mdr,0.5 µg/mL
same,MIC,Candida albicans 90028,2 µg/mL
same,MIC,Candida albicans 90030,1 µg/mL
same,MIC,Candida dlabrata 250^mdr; 48 h,2 µg/mL
same,MIC,[20],0.5 µg/mL
same,MIC,[21],1 µg/mL
same,MIC,[22],4 µg/mL
same,MIC,[23],4 µg/mL
same,MIC,[24],4 µg/mL
same,MIC,[25],1 µg/mL
"OCCCCCCCN=C=S [Compound 44, HO—(CH2)7—N═C═S]",MIC,"Shigella sp., BK 12440",64 µg/mL
same,MIC,"Shigella sp., BK 12441",64 µg/mL
same,MIC,[1],4 µg/mL
same,MIC,"[2]; MRSA BK12060, Gram +, 24 hours of incubation",8 µg/mL
same,MIC,"[3]; MRSA BK12064, Gram +, 24 hours of incubation",16 µg/mL
same,MIC,"Escherichia coli K12; Escherichia coli K12, Gram −, 24 hours of incubation",>64 µg/mL
same,MIC,"Bacillus cereus 4342; Bacillus cereus 4342, Gram +, 24 hours of incubation",8 µg/mL
same,MIC,"Escherichia coli BK12336; Escherichia coli BK12336, Gram −, 24 hours of incubation",>64 µg/mL
same,MIC,"[4]; Enterococcus sp., BK11936, Gram +, 24 hours of incubation",32 µg/mL
same,MIC,"[5]; Enterococcus sp., BK11940, Gram +, 24 hours of incubation",32 µg/mL
same,MIC,"[6]; Acinetobacter sp., BK12786, Gram −, 24 hours of incubation",64 µg/mL
same,MIC,"[7]; Acinetobacter sp., BK12787, Gram −, 24 hours of incubation",64 µg/mL
same,MIC,"[10]; Serattia marcescens BK12421, Gram −, 24 hours of incubation",>64 µg/mL
same,MIC,"[11]; Serattia marcescens BK12426, Gram −, 24 hours of incubation",>64 µg/mL
same,MIC,"[12]; Enterobacter cloacii BK12313, Gram −, 24 hours of incubation",>64 µg/mL
same,MIC,"[13]; Enterobacter cloacii BK12315, Gram −, 24 hours of incubation",>64 µg/mL
same,MIC,"[14]; Klebsiella pneumonii BK12260, Gram −, 24 hours of incubation",>64 µg/mL
same,MIC,"[15]; Klebsiella pneumonii BK12261, Gram −, 24 hours of incubation",>64 µg/mL
same,MIC,"[16]; Pseudomonas aeruginosa BK12347, Gram −, 24 hours of incubation",>64 µg/mL
same,MIC,"[17]; Pseudomonas aeruginosa BK12348, Gram −, 24 hours of incubation",>64 µg/mL
same,MIC,"[18]; Staphylococcus epidermidis BK12798, Gram +, 24 hours of incubation",8 µg/mL
same,MIC,"[19]; Staphylococcus epidermidis BK12799, Gram +, 24 hours of incubation",8 µg/mL
"OC(Cn1cncn1)(Cn1cncn1)c1ccc(F)cc1F [Fluc, Fluconazol, reference compound]",MIC,Candida crusei 6258^mdr,32 µg/mL
same,MIC,Candida albicans 90028,0.25 µg/mL
same,MIC,Candida albicans 90030,4 µg/mL
same,MIC,Candida dlabrata 250^mdr,> 64 µg/mL
same,MIC,[20],32 µg/mL
same,MIC,[21],2 µg/mL
same,MIC,[22],> 64 µg/mL
same,MIC,[23],> 64 µg/mL
same,MIC,[24],> 64 µg/mL
same,MIC,[25],4 µg/mL
